Where two headings read alike, the source gives them in different places.
Assays:
Gram-positive bacteria = experiment: Clinical and microbiological efficacy evaluation of TEI treatment; assay type: in vivo, human; conditions: for Eradication rate of Gram-positive bacteria: eradication or presumed eradication
Procedure: According to the guiding principles of Clinical Trial Technology of antibacterial agents (2014 edition) ([Writing Group of Guidance for Clinical Trials of Antibacterial Drugs, 2014]), the judgment on efficacy evaluation includes clinical efficacy and microbiological efficacy. Clinical efficacy was evaluated after 7–14 days of medication. Clinical efficacy was evaluated in terms of clinical cure and clinical failure. Clinical cure is defined as the complete resolution or significant improvement of pretreatment infection signs and symptoms such that no additional antimicrobial therapy is needed. Clinical failure is defined as no apparent response or an incomplete response that needs additional antibiotic therapy for infections. The microbiological efficacy was evaluated as eradication, presumed eradication, no eradication, and presumed no eradication. Microbiological success was defined as eradication or presumed eradication of Gram-positive bacteria ([Writing Group of Guidance for Clinical Trials of Anti-bacterial Drugs, 2014]). The primary outcomes were clinical cure and microbiological success rates at the end of treatment (EOT).
Univariate and multivariate logistic regression analyses were used to select the covariables of the regression model. We established the regression model for predicting the factors influencing the eradication of Gram-positive bacteria. In univariate analysis, the χ^2 test or the Fisher exact test was used to compare the categorical variables. Continuous variables were compared by using the Mann–Whitney U test. Covariates with p values <0.1 were included in the multivariate logistic regression analysis (backward procedure, based on the p-value of the predictor removed) ([Hammitt et al., 2019]). Multivariate logistic regression analysis was used to screen for independent risk factors. SPSS software automatically screened out the independent variables when the optimal balance was reached between the fitting degrees of the prediction model.
Independent risk factor variables were used to establish regression equations and calculate prediction probabilities. The receiver operating characteristic (ROC) curves of multivariate factors were drawn; the area under the curve (AUC), cutoff point, Youden index, sensitivity, and specificity were used to evaluate their predictive value for predicting the factors influencing the eradication of Gram-positive bacteria.

[1] = Text: Patients’ data were obtained from the inpatients’ medical database.

## Teicoplanin
Gram-positive bacteria; CRRT group
  Cases of presumed eradication of Gram-positive bacteria: 4 cases
  Eradication rate of Gram-positive bacteria: 77.5%
Gram-positive bacteria; CRRT group (n = 40)
  Clinical cure rate: 67.5%
Gram-positive bacteria; non-CRRT group (n = 66)
  Clinical cure rate: 72.7%
Gram-positive bacteria; non-CRRT group
  Eradication rate of Gram-positive bacteria: 81.8%
[1]; CRRT group
  28-day hospital mortality rate: 22.5%
[1]; non-CRRT group
  28-day hospital mortality rate: 15.2%

— paper PMC8957950 (Frontiers in Pharmacology, 2022)
